According to patent US20260200923A1, “HETEROCYCLIC COMPOUNDS TARGETING THE NUDT5 PROTEIN” (Oxford University Innovation Limited, priority 2022, published 2026):
“Also recorded” adds a separate entry of the source.

How the values were obtained:
MTHFD1^KO cells = test: growth of MTHFD1^KO cells in dialyzed serum media with compound supplementation; assay type: cell-based
Method: (§1) MTHFD1^KO cells in dialyzed FBS media were treated with a single nucleotide or folic acid metabolite for 72 hours. Cells were then stained with Hoechst, imaged, and counted using an Operetta (Perkin Elmer). For the AMPK activator studies, cells were stained with Hoechst, imaged, and counted using an Opera (Perkin Elmer). Similarly, MTHFD1^K56R cells in dialyzed FBS media were treated with adenosine for 72 hours. Cells were then stained with Hoechst, imaged, and counted using an Operetta (Perkin Elmer).
MTHFD1^KO cells (F5 clone) in dialyzed FBS media were treated with the CeMM compound library (89,228 chemically diverse compounds). Both cell number, using Hoechst staining, and CellTiter-Glo (Promega), an indicator of metabolically active cells, was both used as a readout, depending on the stage of the screen.
Briefly, the screening was divided into the three parts (i) primary screening, (ii) follow-up and (iii) validation. During the primary screen, MTHFD1^KO cells were treated with 10 μM of every compound and CellTiter-Glo (Promega) was used to assess their ability to increase cell growth after 48 hours. From this primary screening, 17 compounds were selected as hits and rescreened in the follow-up part, in which the MTHFD1^KO cells were treated in a six-point dose response for 72 hours to discard any false positives. Finally, in the validation part, MTHFD1^KO cells were treated with 10 compounds in an eight-point dose response curve and the cell numbers were counted by staining with Hoechst, imaging and counting nuclei using the Opera Phenix (Perkin Elmer) and Harmony software (Perkin Elmer).

NUDT14 = molecular target: T1, NUDT14 (Homo sapiens, UniProt O95848); test: AMP-Glo catalytic assay, NUDT14; assay type: biochemical; settings: 2 nM NUDT14, ADPr substrate, 1 hour, mean±SD; read-out: NUDT14 IC50
T1 sequence (O95848 1-222): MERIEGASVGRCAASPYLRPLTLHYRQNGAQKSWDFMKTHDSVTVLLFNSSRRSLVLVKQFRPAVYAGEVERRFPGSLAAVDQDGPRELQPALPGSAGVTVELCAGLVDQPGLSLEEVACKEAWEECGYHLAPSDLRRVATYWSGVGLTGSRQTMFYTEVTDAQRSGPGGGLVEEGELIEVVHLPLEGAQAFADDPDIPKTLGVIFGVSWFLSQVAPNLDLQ
Method: To identify alternative X groups, a screening exercise was performed. […] Inhibition activities of the compounds were determined using AMP-Glo system (Promega). The compounds were diluted from 50 μM to 0 μM in a final reaction containing 20 mM Hepes, 100 mM NaCl, 0.5 mM TCEP, 1 mM MgCl2 and 0.1% BSA, pH 7.4. The reactions were performed in 1536 well plate in […] reaction volume with 2 nM of NUDT5 and NUDT14, and […] of ADPr as the substrate. The final DMSO concentration was 0.5% for all reactions. NUDT5 reactions were incubated for 20 minutes while NUDT14 reactions were carried out for 1 hour at room temperature. […] The reactions were further incubated with the 4 μl of Detection solution for 1 hour at room temperature. Luminescence signals were then measured in PHERAstar FSX plate reader. Experiments were done in triplicate sets and data were analysed by GraphPad Prism 9. Data are represented as the mean±SD of three biological experiments: […]

NUDT5 [1] = molecular target: T2, NUDT5 (Homo sapiens, UniProt Q9UKK9); test: NUDT5 degradation by Western blot in HEK293 cells; assay type: cell-based; design: endogenous in cells; host or cells: HEK293 (also CRBN knock-out HEK293 for A13)
Method: For Western blots, proteins were separated on polyacrylamide gels with SDS running buffer (50 mM Tris, 380 mM Glycine, 7 mM SDS) and transferred to PVDF membranes. All membranes were then blocked with blocking buffer (5% w/v milk powder, BioRad) in TBST (50 mM Tris (tris(hydroxymethylaminomethane), 150 mM NaCl, 0.05% (v/v) Tween 20, adjusted to pH 7.6) Proteins were probed with antibodies against phospho-AMPK (50081S, 1:2000, Cell Signaling Technologies), AMPK (5832S, 1:2000, Cell Signaling Technologies), PML (ab179466, 1:1000, abeam), PARP8 (NBP213733, 1:1000, Novus Biologicals), ATF2/7 (82870, 1:1000, Cell Signaling Technologies), alpha-Tubulin (ab7291, 1:1000, Abeam), phospho-UBTF (ab182583, 1:1000, abeam), UBTF (HPA006385, 1:1000, Sigma), RBM38 (AV40862, 1:1000, Sigma), or NUDT5 (ab129172, 1:1000, abeam), detected by HRP (horse-radish peroxidase) conjugated donkey anti-rabbit IgG antibody (Pierce) or donkey anti-mouse antibody IgG antibody (Pierce) and visualized with Clarity ECL Western Blotting substrate (BioRad), according to provided protocol.

NUDT5-CRBN interaction = molecular target: T3, NUDT5-CRBN interaction (Homo sapiens, UniProt Q96SW2+Q9UKK9); test: NanoBRET ternary complex formation (protein-protein interaction) assay; assay type: cell-based; settings: HEK293 cells, 4 h
T3 construct: expressed in transfected cells; host or cells: HEK293
Method: For NanoBRET protein-protein interaction assay, NanoBRET Nano-Glo Detection System (N1662, Promega) was used according to the manufacturer's instruction. In brief, 220,000 HEK293 cells/ml was seeded in a 6-well plate. After 6 h, N-terminal nanoLuc NUDT5 and Halo-tag CRBN were then transfected into the cells using Fugene HD transfection reagent (E2312, Promega). The transfected HEK293 (220,000 cells/ml) were then replated onto a 384-well plate containing compounds. After 4 h incubation, NanoLuc substrate was added into each well and the signals were measured by PHERAstar Microplate Reader.
Compounds were dispensed in the 384-well plates by using Echo Acoustic Dispenser.

NUDT5 [2] = molecular target: T2, NUDT5; test: CRBN knock-out experiment, NUDT5 degradation; assay type: cell-based; design: endogenous in cells; host or cells: HEK293 (also CRBN knock-out HEK293 for A13); settings: CRBN knock-out HEK293 cells, 20 h
HAP-1 cells = test: 6-thioguanine assay (CellTiter-Glo viability); assay type: cell-based; settings: 0.2 μg/ml 6-thioguanine, 72 h; HAP1 (and NB4, FIG. 11)
Method: NB-4 and HAP1 cells (1000 cells/well in 40 uL) were seeded onto a 384-well plate containing compounds. DMSO or 0.2 μg/ml 6-thioguanine (A4882, Sigma-Aldrich) was added into respective wells. After 72 h incubation cell viability was measured by using CellTiter-Glo 2.0 Assay (G9242, Promega). Compounds in the 384-well plates were prepared by using Echo Acoustic Dispenser.

MTHFD1^K56R cells = test: growth of MTHFD1^K56R cells in adenosine-containing media; assay type: cell-based; settings: adenosine-containing media, 72 h
Method: HAP1 (KBM7-derived, Horizon Discovery, C859), and HAP1 MTHFD1^KO, MTHFD1^K56R, and MTHFD1^K386E cell lines were cultured in Iscove's Modified Dulbecco's Medium (IMDM, Sigma), supplemented with 10% Fetal Bovine Serum (FBS, Sigma) and 1% Penicillin/Streptomycin (P/S, Sigma).
as §1

NUDT5 degradation at 100 nM, 20 h (%) (NUDT5 [1])	Compound	rescue of growth in dialyzed serum (MTHFD1^KO cells)	other results
52%	Cn1c(=O)c2c(nc(N3CCN(C(=O)CCOCCOCCNc4cccc5c4C(=O)N(C4CCC(=O)NC4=O)C5=O)CC3)n2Cc2nnc(-c3ccc(Cl)c(Cl)c3)o2)n(C)c1=O (stereo not shown) [Compound 068, 7-((5-(3,4-dichlorophenyl)-1,3,4-oxadiazol-2-yl)methyl)-8-(4-(3-(2-(2-((2-(2,6-dioxopiperidin-3-yl)-1,3-dioxoisoindolin-4-yl)amino)ethoxy)ethoxy)propanoyl)piperazin-1-yl)-1,3-dimethyl-3,7-dihydro-1H-purine-2,6-dione]	–	Dmax (NUDT5 [1]; HEK293, NUDT5 degradation): 50%
39%	Cn1c(=O)c2c(nc(N3CCN(CC4CCN(c5ccc6c(c5)C(=O)N(C5CCC(=O)NC5=O)C6=O)CC4)CC3)n2Cc2nnc(-c3ccc(Cl)c(Cl)c3)o2)n(C)c1=O (stereo not shown) [Compound 070, 7-((5-(3,4-dichlorophenyl)-1,3,4-oxadiazol-2-yl)methyl)-8-(4-((1-(2-(2,6-dioxopiperidin-3-yl)-1,3-dioxoisoindolin-5-yl)piperidin-4-yl)methyl)piperazin-1-yl)-1,3-dimethyl-3,7-dihydro-1H-purine-2,6-dione]	–	NUDT5 degradation (NUDT5 [1]; Western blot, FIG. 12A): reasonable NUDT5 degrader; ternary complex formation between NUDT5 and CRBN (NUDT5-CRBN interaction): induced the ternary complex

Second part, the compound before the results:

Compound	NUDT5 degradation at 100 nM, 20 h (%) (NUDT5 [1])	rescue of growth in dialyzed serum (MTHFD1^KO cells)	other results
Nc1ncnc2c1ncn2[C@@H]1O[C@H](COP(=O)(O)O)[C@@H](O)[C@H]1O [AMP]	–	able to rescue the growth	–
Cn1nc(-c2ccc(Oc3ccccc3)cc2)c2c(N)ncnc21 [Compound 2]	–	–	IC50 (NUDT14): 604 ± 116 nM
Nc1ncnc2[nH]nc(-c3ccc(Oc4ccccc4)cc3)c12 [Compound 3]	–	–	IC50 (NUDT14): 548 ± 37 nM
C=CC(=O)N1CCC=C(c2nn(C3CCN(C)CC3)c3ncnc(N)c23)C1 [Compound 5]	–	–	IC50 (NUDT14): 4270 ± 133 nM
CN1CCC(n2nc(-c3ccc(NC(=O)CCl)cc3)c3c(N)ncnc32)CC1 [Compound 8]	–	–	IC50 (NUDT14): 377 ± 35 nM
Cn1c(=O)c2c(nc(N3CCN(CCC4CCN(c5ccc6c(c5)C(=O)N(C5CCC(=O)NC5=O)C6=O)CC4)CC3)n2Cc2nnc(-c3ccc(Cl)c(Cl)c3)o2)n(C)c1=O (stereo not shown) [Compound 102, 7-((5-(3,4-dichlorophenyl)-1,3,4-oxadiazol-2-yl)methyl)-8-(4-(2-(1-(2-(2,6-dioxopiperidin-3-yl)-1,3-dioxoisoindolin-5-yl)piperidin-4-yl)ethyl)piperazin-1-yl)-1,3-dimethyl-3,7-dihydro-1H-purine-2,6-dione]	46%	–	–
Cn1c(=O)c2c(nc(N3CCN(C(=O)CCOCCOCCOCCNc4cccc5c4C(=O)N(C4CCC(=O)NC4=O)C5=O)CC3)n2Cc2nnc(-c3ccc(Cl)c(Cl)c3)o2)n(C)c1=O (stereo not shown) [Compound 127, 7-((5-(3,4-dichlorophenyl)-1,3,4-oxadiazol-2-yl)methyl)-8-(4-(3-(2-(2-(2-((2-(2,6-dioxopiperidin-3-yl)-1,3-dioxoisoindolin-4-yl)amino)ethoxy)ethoxy)ethoxy)propanoyl)piperazin-1-yl)-1,3-dimethyl-3,7-dihydro-1H-purine-2,6-dione]	76%	–	dependence of degradation on E3 ligase (NUDT5 [2]): E3-ligase-dependant
Cn1c(=O)c2c(nc(N3CCN(C(=O)CCOCCOCCOCCOCCNc4cccc5c4C(=O)N(C4CCC(=O)NC4=O)C5=O)CC3)n2Cc2nnc(-c3ccc(Cl)c(Cl)c3)o2)n(C)c1=O (stereo not shown) [Compound 130, 7-((5-(3,4-dichlorophenyl)-1,3,4-oxadiazol-2-yl)methyl)-8-(4-(1-((2-(2,6-dioxopiperidin-3-yl)-1,3-dioxoisoindolin-4-yl)amino)-3,6,9,12-tetraoxapentadecan-15-oyl)piperazin-1-yl)-1,3-dimethyl-3,7-dihydro-1H-purine-2,6-dione]	81%	–	dependence of degradation on E3 ligase (NUDT5 [2]): E3-ligase-dependant
Cc1cc2nc3c(=O)[nH]c(=O)nc-3n(C[C@H](O)[C@H](O)[C@H](O)COP(=O)(O)OP(=O)(O)OC[C@H]3O[C@@H](n4cnc5c(N)ncnc54)[C@H](O)[C@@H]3O)c2cc1C [FAD]	–	able to rescue the growth	–
NC(=O)C1=CN([C@@H]2O[C@H](COP(=O)(O)OP(=O)(O)OC[C@H]3O[C@@H](n4cnc5c(N)ncnc54)[C@H](O)[C@@H]3O)[C@@H](O)[C@H]2O)C=CC1 [NADH]	–	able to rescue the growth	–
NC(=O)c1ccc[n+]([C@@H]2O[C@H](COP(=O)([O-])OP(=O)(O)OC[C@H]3O[C@@H](n4cnc5c(N)ncnc54)[C@H](O)[C@@H]3O)[C@@H](O)[C@H]2O)c1 [NAD]	–	able to rescue the growth	–
C[S+](CC[C@H](N)C(=O)[O-])C[C@H]1O[C@@H](n2cnc3c(N)ncnc32)[C@H](O)[C@@H]1O (stereo partly shown) [SAM]	–	able to rescue the growth	–
Cn1c(=O)c2c(nc(N3CCNCC3)n2Cc2nnc(-c3ccc(Cl)c(Cl)c3)o2)n(C)c1=O [TH5427, reference compound]	–	–	rescue of 6-TG toxicity (HAP-1 cells): did not show a rescue; also recorded: neither the negative control nor TH5427 gave any significant effects; effect on adenosine toxicity / viability (MTHFD1^K56R cells): did not affect the viability
O=c1[nH]cnc2nc[nH]c12 [hypoxanthine]	–	able to rescue the growth	–
